Laboratory results: patent US10954252B1, “Inhibitors of human immunodeficiency virus replication” (ViiV HEALTHCARE UK (NO.5) LIMITED, priority 2017, dated 2021)

Tests used:
[1] = test system: recombinant NL4-3 virus (nef section replaced with Renilla luciferase gene) in MT-2 cells; assay: HIV cell culture assay (antiviral activity, luciferase readout); type: cell-based; settings: Renilla, NL43, Table 1a; MT-2 cells infected for 4-5 days with recombinant NL4-3 luciferase virus
Outline: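 NL4-3 reporter virus carrying Renilla luciferase in place of part of nef, produced in 293T cells, was used to infect MT-2 cells for 4-5 days with serial compound dilutions. Luciferase activity was read with a live-cell substrate; EC50 derived from the median effect equation.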

[2] = Compound cytotoxicity, XTT-based colorimetric assay; type: cell-based; settings: human, uninfected MT2 cells, Table 1a, day 4, XTT
Outline: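 CC50 from uninfected MT2 cells run under the antiviral-assay protocol without virus. Viability read on day 4 by XTT colorimetric assay.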

Compound O=C(Cn1nc(C(F)F)c2c1C(F)(F)[C@@H]1C[C@H]21)N[C@@H](Cc1cc(F)cc(F)c1)c1nc2cc[nH]c2cc1-c1ccc(S(=O)(=O)N2CCOCC2)cc1 [Example 65, 2-((3bS,4aR)-3-(difluoromethyl)-5,5-difluoro-3b,4,4a,5-tetrahydro-1H-cyclopropa[3,4]cyclopenta[1,2-c]pyrazol-1-yl)-N—((S)-2-(3,5-difluorophenyl)-1-(6-(4-(morpholinosulfonyl)phenyl)-1H-pyrrolo[3,2-b]pyridin-5-yl)ethyl)acetamide] has an EC50 [1] of 2.03 nM and a CC50 at 4 days [2] of 2000 nM.
O=C(Cn1nc(C(F)F)c2c1C(F)(F)[C@@H]1C[C@H]21)N[C@H](Cc1cc(F)cc(F)c1)c1nc2cc[nH]c2cc1-c1ccc(S(=O)(=O)N2CCOCC2)cc1 [Example 66, 2-((3bS,4aR)-3-(difluoromethyl)-5,5-difluoro-3b,4,4a,5-tetrahydro-1H-cyclopropa[3,4]cyclopenta[1,2-c]pyrazol-1-yl)-N—((R)-2-(3,5-difluorophenyl)-1-(6-(4-(morpholinosulfonyl)phenyl)-1H-pyrrolo[3,2-b]pyridin-5-yl)ethyl)acetamide] showed an EC50 [1] of 1540 nM and a CC50 at 4 days [2] of 10000 nM.
With Cn1nc(NS(C)(=O)=O)c2c(Cl)ccc(-n3c(C(Cc4cc(F)cc(F)c4)NC(=O)Cn4nc(C(F)F)c5c4C(F)(F)[C@@H]4C[C@H]54)nc4c(F)cc(F)cc4c3=O)c21 (stereo partly shown) [Example 73] the EC50 [1] was 1.53 nM and the CC50 at 4 days [2] was > 1000 nM.
For COc1ccc2c(=O)n(-c3ccc(Cl)c4c(NS(C)(=O)=O)nn(C)c34)c(C(Cc3cc(F)cc(F)c3)NC(=O)Cn3nc(C(F)F)c4c3C(F)(F)[C@@H]3C[C@H]43)nc2c1F (stereo partly shown) [Example 75], the EC50 [1] was 109 nM and the CC50 at 4 days [2] was > 1000 nM.
Compound CC(C)c1ccc(-c2cc3[nH]ccc3nc2[C@H](Cc2cc(F)cc(F)c2)NC(=O)Cn2nc(C(F)F)c3c2C(F)(F)[C@@H]2C[C@H]32)cn1 [Example 81, 2-((3bS,4aR)-3-(difluoromethyl)-5,5-difluoro-3b,4,4a,5-tetrahydro-1H-cyclopropa[3,4]cyclopenta[1,2-c]pyrazol-1-yl)-N—((S)-2-(3,5-difluorophenyl)-1-(6-(6-isopropylpyridin-3-yl)-1H-pyrrolo[3,2-b]pyridin-5-yl)ethyl)acetamide] has an EC50 [1] of 13.6 nM and a CC50 at 4 days [2] of 10000 nM.
For CC(C)c1ccc(-c2cc3[nH]ccc3nc2[C@@H](Cc2cc(F)cc(F)c2)NC(=O)Cn2nc(C(F)F)c3c2C(F)(F)[C@@H]2C[C@H]32)cn1 [Example 85, 2-((3bS,4aR)-3-(difluoromethyl)-5,5-difluoro-3b,4,4a,5-tetrahydro-1H-cyclopropa[3,4]cyclopenta[1,2-c]pyrazol-1-yl)-N—((R)-2-(3,5-difluorophenyl)-1-(6-(6-isopropylpyridin-3-yl)-1H-pyrrolo[3,2-b]pyridin-5-yl)ethyl)acetamide], the EC50 [1] was 299 nM and the CC50 at 4 days [2] was > 3160 nM.
For Cn1nc(NS(C)(=O)=O)c2c(Cl)ccc(-c3cc4[nH]cc(Cl)c4nc3C(Cc3cc(F)cc(F)c3)NC(=O)Cn3nc(C(F)F)c4c3C(F)(F)[C@@H]3C[C@H]43)c21 (stereo partly shown) [Example 88], the EC50 [1] was 0.61 nM and the CC50 at 4 days [2] was > 10000 nM.
With CS(=O)(=O)Nc1n[nH]c2c(-c3cc4[nH]ccc4nc3[C@H](Cc3cc(F)cc(F)c3)NC(=O)Cn3nc(C(F)F)c4c3C(F)(F)[C@@H]3C[C@H]43)ccc(Cl)c12 [Example 90, N—((S)-1-(6-(4-chloro-3-(methylsulfonamido)-1H-indazol-7-yl)-1H-pyrrolo[3,2-b]pyridin-5-yl)-2-(3,5-difluorophenyl)ethyl)-2-((3bS,4aR)-3-(difluoromethyl)-5,5-difluoro-3b,4,4a,5-tetrahydro-1H-cyclopropa[3,4]cyclopenta[1,2-c]pyrazol-1-yl)acetamide] the EC50 [1] was 1.48 nM and the CC50 at 4 days [2] was > 10000 nM.
In the case of CS(=O)(=O)Nc1nn(CC(F)F)c2c(-c3nc4ccccc4nc3[C@H](Cc3cc(F)cc(F)c3)NC(=O)Cn3nc(C(F)F)c4c3C(F)(F)[C@@H]3C[C@H]43)ccc(Cl)c12 [Example 96, N—((S)-1-(3-(4-chloro-1-(2,2-difluoroethyl)-3-(methylsulfonamido)-1H-indazol-7-yl)quinoxalin-2-yl)-2-(3,5-difluorophenyl)ethyl)-2-((3bS,4aR)-3-(difluoromethyl)-5,5-difluoro-3b,4,4a,5-tetrahydro-1H-cyclopropa[3,4]cyclopenta[1,2-c]pyrazol-1-yl)acetamide], the EC50 [1] is reported as 0.26 nM and the CC50 at 4 days [2] is reported as > 1000 nM.
In the case of COc1c(F)cc2c(=O)n(-c3ccc(Cl)c4c(NS(C)(=O)=O)nn(C)c34)c(C(Cc3cc(F)cc(F)c3)NC(=O)Cn3nc(C(F)F)c4c3C(F)(F)[C@@H]3C[C@H]43)nc2c1F (stereo partly shown) [Example 113], the EC50 [1] is reported as 8.43 nM and the CC50 at 4 days [2] is reported as > 1000 nM.
With O=C(Cn1nc(C(F)F)c2c1C(F)(F)[C@@H]1C[C@H]21)NC(Cc1cc(F)cc(F)c1)c1nc2ncccc2c(=O)n1-c1ccc(Cl)cc1 (stereo partly drawn) [Example 123, N-(1-(3-(4-chlorophenyl)-4-oxo-3,4-dihydropyrido[2,3-d]pyrimidin-2-yl)-2-(3,5-difluorophenyl)ethyl)-2-((3bS,4aR)-3-(difluoromethyl)-5,5-difluoro-3b,4,4a,5-tetrahydro-1H-cyclopropa[3,4]cyclopenta[1,2-c]pyrazol-1-yl)acetamide] the EC50 [1] was 408 nM and the CC50 at 4 days [2] was > 1000 nM.
With O=C(Cn1nc(C(F)F)c2c1C(F)(F)[C@@H]1C[C@H]21)N[C@@H](Cc1cc(F)cc(F)c1)c1nc2ccccc2c(=O)n1-c1ccc(Cl)cc1 [Example 124, N—((S)-1-(3-(4-chlorophenyl)-4-oxo-3,4-dihydroquinazolin-2-yl)-2-(3,5-difluorophenyl)ethyl)-2-((3bS,4aR)-3-(difluoromethyl)-5,5-difluoro-3b,4,4a,5-tetrahydro-1H-cyclopropa[3,4]cyclopenta[1,2-c]pyrazol-1-yl)acetamide] the EC50 [1] was 208 nM and the CC50 at 4 days [2] was > 1000 nM.
In the case of Cn1nc(NS(C)(=O)=O)c2c(Cl)ccc(-c3nc4ccccc4nc3[C@H](Cc3cc(F)cc(F)c3)NC(=O)Cn3nc(C(F)F)c4c3C(F)(F)[C@@H]3C[C@H]43)c21 [Example 154, N—((S)-1-(3-(4-chloro-1-methyl-3-(methylsulfonamido)-1H-indazol-7-yl)quinoxalin-2-yl)-2-(3,5-difluorophenyl)ethyl)-2-((3bS,4aR)-3-(difluoromethyl)-5,5-difluoro-3b,4,4a,5-tetrahydro-1H-cyclopropa[3,4]cyclopenta[1,2-c]pyrazol-1-yl)acetamide], the EC50 [1] is reported as 0.43 nM and the CC50 at 4 days [2] is reported as > 10000 nM.
For Cn1nc(NS(C)(=O)=O)c2c(Cl)ccc(-c3nc4ccccc4nc3[C@@H](Cc3cc(F)cc(F)c3)NC(=O)Cn3nc(C(F)F)c4c3C(F)(F)[C@@H]3C[C@H]43)c21 [Example 155, N—((R)-1-(3-(4-chloro-1-methyl-3-(methylsulfonamido)-1H-indazol-7-yl)quinoxalin-2-yl)-2-(3,5-difluorophenyl)ethyl)-2-((3bS,4aR)-3-(difluoromethyl)-5,5-difluoro-3b,4,4a,5-tetrahydro-1H-cyclopropa[3,4]cyclopenta[1,2-c]pyrazol-1-yl)acetamide], the EC50 [1] was 35.8 nM and the CC50 at 4 days [2] was > 10000 nM.
For O=C(Cn1nc(C(F)F)c2c1C(F)(F)[C@@H]1C[C@H]21)N[C@@H](Cc1cc(F)cc(F)c1)c1nc2ccccc2nc1-c1ccc(S(=O)(=O)N2CCOCC2)cc1 [Example 156, 2-((3bS,4aR)-3-(difluoromethyl)-5,5-difluoro-3b,4,4a,5-tetrahydro-1H-cyclopropa[3,4]cyclopenta[1,2-c]pyrazol-1-yl)-N—((S)-2-(3,5-difluorophenyl)-1-(3-(4-(morpholinosulfonyl)phenyl)quinoxalin-2-yl)ethyl)acetamide], the EC50 [1] was 16.4 nM and the CC50 at 4 days [2] was > 10000 nM.
With O=C(Cn1nc(C(F)F)c2c1C(F)(F)[C@@H]1C[C@H]21)N[C@@H](Cc1cc(F)cc(F)c1)c1nc2ccccc2nc1-c1ccc2c(c1)C(=O)NC2 [Example 157, 2-((3bS,4aR)-3-(difluoromethyl)-5,5-difluoro-3b,4,4a,5-tetrahydro-1H-cyclopropa[3,4]cyclopenta[1,2-c]pyrazol-1-yl)-N—((S)-2-(3,5-difluorophenyl)-1-(3-(3-oxoisoindolin-5-yl)quinoxalin-2-yl)ethyl)acetamide] the EC50 [1] was 10.4 nM and the CC50 at 4 days [2] was > 10000 nM.
In the case of O=C(Cc1c[nH]c2ccc(O)cc12)N[C@@H](Cc1cc(F)cc(F)c1)c1nc2ccccc2nc1-c1ccc2c(c1)C(=O)NC2 [Example 158, (S)—N-(2-(3,5-difluorophenyl)-1-(3-(3-oxoisoindolin-5-yl)quinoxalin-2-yl)ethyl)-2-(5-hydroxy-1H-indol-3-yl)acetamide], the EC50 [1] is reported as 102 nM and the CC50 at 4 days [2] is reported as > 10000 nM.
For CC(C)c1ccc(-n2c([C@H](Cc3cc(F)cc(F)c3)NC(=O)Cc3c[nH]c4ccc(O)cc34)nc3cc(C#N)ccc3c2=O)cn1 [Example 162, (S)—N-(1-(7-cyano-3-(6-isopropylpyridin-3-yl)-4-oxo-3,4-dihydroquinazolin-2-yl)-2-(3,5-difluorophenyl)ethyl)-2-(5-hydroxy-1H-indol-3-yl)acetamide], the EC50 [1] was 6.56 nM and the CC50 at 4 days [2] was > 10000 nM.
Compound CC(C)c1ccc(-n2c([C@H](Cc3cc(F)cc(F)c3)NC(=O)Cn3nc(C(F)F)c4c3C(F)(F)[C@@H]3C[C@H]43)nc3cc(C#N)ccc3c2=O)cn1 [Example 163, N—((S)-1-(7-cyano-3-(6-isopropylpyridin-3-yl)-4-oxo-3,4-dihydroquinazolin-2-yl)-2-(3,5-difluorophenyl)ethyl)-2-((3bS,4aR)-3-(difluoromethyl)-5,5-difluoro-3b,4,4a,5-tetrahydro-1H-cyclopropa[3,4]cyclopenta[1,2-c]pyrazol-1-yl)acetamide] has an EC50 [1] of 11.9 nM and a CC50 at 4 days [2] of 3980 nM.
For O=C(Cc1c[nH]c2ccc(O)cc12)N[C@@H](Cc1cc(F)cc(F)c1)c1nc2ccccc2c(=O)n1-c1ccc(S(=O)(=O)N2CCOCC2)cc1 [Example 164, (S)—N-(2-(3,5-difluorophenyl)-1-(3-(4-(morpholinosulfonyl)phenyl)-4-oxo-3,4-dihydroquinazolin-2-yl)ethyl)-2-(5-hydroxy-1H-indol-3-yl)acetamideacetamide], the EC50 [1] was 1.17 nM and the CC50 at 4 days [2] was > 10000 nM.
